Columns and labels:
Gram Negative = experiment: Surface Antimicrobial Kill Testing Method, activity normalized to triclosan internal standard; format: cell-based; conditions: for Referenced Microbial Activity: Table 15; for Referenced Microbial Activity / Negative Referenced Microbial Activity / Gram Negative Referenced Microbial Activity: 0.5 wt % compound; for Referenced Microbial Activity / Negative Referenced Microbial Activity: 0.1M Acetic acid buffer pH 4.5; for Negative Referenced Microbial Activity: Table 16; for antimicrobial benefit (in words): Table 16 nonionic formulation: DEGBE, EcoSurf EH9; for Gram Negative Referenced Microbial Activity: 5 wt % DPGME; for antimicrobial efficacy (in words): Table 17
Experimental: Inoculum is prepared by streaking microorganism onto a Tryptic Soy Agar (TSA) plate and incubating for 24 h at 33° C. Plated bacteria is resuspended in saline until the transmittance percentage falls within the accepted range for ˜10^8 cfu/mL. For K. pneumonia (Kp) and P. aeruginosa (Pa), this is 31.00-33.00% T. For S. aureus (Sa) this is 23.00-25.00% T. A 10× concentration is made by spinning down the prepared inoculum, removing the supernatant saline from the bacterial pellet, then resuspending the pellet in 1/10 of the original volume of saline. The final inoculum is prepared with 5% of “soil” in the form of Fetal Bovine Serum (FBS).
A 18×18 mm sterile glass coverslip is placed into an appropriate container (e.g. petri dish). 20 μL of prepared inoculum is added to the glass coverslip. Inoculum is then air-dried for 30 minutes in a 36° C. incubator. After drying, 40 μL of test sample is added on top of the dried inoculum. This is incubated at room temperature for the desired contact time. 5 mL of neutralizing media (Modified Letheen Broth+Tween+Lecithin (MLBTL)) is added to the coverslip and shaken on an orbital shaker for 5 minutes to ensure proper neutralization and extraction. Viability is then assessed of the neutralized and extracted sample by traditional/alternative microbiological techniques.
The normalized antimicrobial activity reported in the performance examples below was generated from detection time data obtained as described in the Surface Antimicrobial Kill Test Method. To account for day-to-day variability an internal standard was tested with each series. The internal standard was a composition of 0.25 wt % Triclosan, Sigma Aldrich (St. Louis, Mo., USA; CAS #3380-34-5, 97.0-103.0% (active substance, GC)), 50 wt % DMSO, and 49.75 wt % H2O, with a final solution pH of 7.7. Normalized activity is reported following the equation 1 below.
Normalized Activity=(αΔDT−βΔDT)/(γΔDT−βΔDT) equation 1.
where, αΔDT is the average detection time of the antimicrobial compound, and γΔDT is the average detection time of the reference triclosan internal standard, and βΔDT is the average detection time of the background unperturbed bacteria.
Modified amino acids of the present disclosure were tested as aqueous solutions in the Surface Antimicrobial Kill Testing Method above. To prepare test solutions modified amino acids were first dissolved in the appropriate solvent. Second the selected surfactant is added to the mixture. After vortex (1 min, Vortex-2 Genie, vortex speed 8) mixing, the samples were then diluted with […] of reverse osmosis water (RO water, Millipore Direct-Q™, pH 6). The aqueous solution was then vortexed (1 min, Vortex-2 Genie, vortex speed 8), to which the second ½ portion of water is added. The pH of the solution was then adjusted to the target pH using either 1N HCl, Glacial Acetic Acid, or 1N NaOH. The final solution was then vortexed (1 min, Vortex-2 Genie, vortex speed 8). An example batch sheet is provided below in Table 1.
In Performance Examples 1-4 below, formulations comprising solvent, surfactant, and antimicrobial agents according to the present disclosure (e.g., based on modified amino acid esters), are evaluated via microbial surface kill tests according to the Surface Antimicrobial Kill Testing Method provided above. After treatment, microbial growth is referenced and reported to a triclosan sample and unaltered microbes according to the Normalization of Antimicrobial Activity provided above.

[1] = Stability of the isolated modified amino acid ester by 1H NMR; format: physicochemical; conditions: isolated solid or fluid
[2] = DEGBE (5 wt %), EcoSurf EH9 1 wt %

## CCOC(=O)C(N)C(C)C (stereo not shown) [Comparative Example C1, reference compound]
Gram Negative; [2]
  Referenced Microbial Activity: 0.5

## CCOC(=O)[C@@H](N)Cc1ccccc1 [Comparative Example C2, phenylalanine ethyl ester, reference compound]
Gram Negative; [2]
  Negative Referenced Microbial Activity: 0.4
Gram Negative
  antimicrobial benefit (in words): little antimicrobial benefit

## CCCCCCOC(=O)[C@@H](N)C(C)C [Synthetic Example 3]
Gram Negative; [2]
  Referenced Microbial Activity: 2.8
[1]
  stability by 1H NMR: stable for several months

## CCCCCCCCOC(=O)[C@@H](N)C(C)C [Synthetic Example 4]
Gram Negative; CTAC 1 wt %, pH 4.5
  Gram Negative Referenced Microbial Activity: 3.5
Gram Negative; Ecosurf EH6 1 wt %, pH 4.5
  Gram Negative Referenced Microbial Activity: 3.5
Gram Negative; Ecosurf EH6 1 wt %, pH 8.5
  Gram Negative Referenced Microbial Activity: 0.7
Gram Negative; Miranol Ultra 32 1 wt %, pH 4.5
  Gram Negative Referenced Microbial Activity: 3.5
Gram Negative; Plantaren 2000 1 wt %, pH 4.5
  Gram Negative Referenced Microbial Activity: 3.5
Gram Negative; SLS (29%) 1 wt %, pH 4.5
  Gram Negative Referenced Microbial Activity: 0.4
Gram Negative; SLS (29%) 1 wt %, pH 8.5
  Gram Negative Referenced Microbial Activity: 0.1
Gram Negative; Surfonic L 24-9 1 wt %, pH 2
  Gram Negative Referenced Microbial Activity: 2.5
Gram Negative; Surfonic L 24-9 1 wt %, pH 4.5
  Gram Negative Referenced Microbial Activity: 3.5
Gram Negative; Surfonic L24-9 1 wt %, pH 7
  Gram Negative Referenced Microbial Activity: 3.5
Gram Negative; Surfonic L24-9 1 wt %, pH 8.5
  Gram Negative Referenced Microbial Activity: 0.2
Gram Negative; Tween 80 1 wt %, pH 4.5
  Gram Negative Referenced Microbial Activity: 3.5
Gram Negative; no surfactant, pH 4.5, solution heated to 50 C. prior to testing
  Gram Negative Referenced Microbial Activity: 1.6
Gram Negative; DEGBE (5 wt %), EcoSurf EH6 1 wt %
  Referenced Microbial Activity: 3.7
Gram Negative; [2]
  Referenced Microbial Activity: 1.6
Gram Negative; Table 15 experiment, modified valine amino acids
  antimicrobial activity (in words): highest activity
Gram Negative; from pH 2 to about pH 7
  antimicrobial efficacy (in words): improved antimicrobial efficacy
Gram Negative; pH range greater than 7
  antimicrobial efficacy (in words): did not provide a benefit
[1]
  stability by 1H NMR: stable for several months

## CCCCCCCCCCCCCCCCOC(=O)[C@@H](N)C(C)C [Synthetic Example 6]
Gram Negative; [2]
  Referenced Microbial Activity: 0.6
[1]
  stability by 1H NMR: stable for several months

## CCCCCCCCCCCCCCCCCCOC(=O)[C@@H](N)C(C)C [Synthetic Example 7]
Gram Negative; [2]
  Referenced Microbial Activity: 0.9
Gram Negative; DMSO (50 wt %), EcoSurf EH6 1 wt %
  Referenced Microbial Activity: 0.6
[1]
  stability by 1H NMR: stable for several months

## N[C@@H](Cc1ccccc1)C(=O)OCc1ccccc1 [Synthetic Example 8]
Gram Negative; [2]
  Negative Referenced Microbial Activity: 4.6
[1]
  stability by 1H NMR: stable for several months

## CCCCCCCCCCCCOC(=O)[C@@H](N)Cc1ccccc1 [Synthetic Example 10]
Gram Negative; [2]
  Negative Referenced Microbial Activity: 0.1
Gram Negative
  antimicrobial benefit (in words): little surface activity
[1]
  stability by 1H NMR: stable for several months

From US20230255202A1, “ANTIMICROBIAL COMPOSITION” (The Procter & Gamble Company, priority 2022, published 2023)
